According to paper PMC10244169, “Psychedelics promote plasticity by directly binding to BDNF receptor TrkB” (Nature Neuroscience, 2023):

Key:
Ntrk2 mRNA = test: RT–qPCR of Ntrk2 mRNA in cortical neurons; conditions: after LSD treatment
TrkA.TM chimera = test: ^3H-LSD saturation binding, TrkB with TMD of TrkA; conditions: TMD of TrkB replaced by that of TrkA
Procedure: (§1) Binding assays were performed as previously described with minor modifications. […] Samples from mouse embryo (E18) brains were also lysed, vortexed, sonicated and centrifuged for binding assays. Plates were then washed with PBS. […] For the competition binding assays with biotinylated R,R-HNK, the amino-biotinylation of R,R-HNK was performed using a commercial kit (Thermo Scientific, EZ-Link NHS-PEG4 Biotinylation Kit, 21455) and the reaction monitored by MS. A mixture of biotinylated R,R-HNK (10 µM) and unlabeled compounds (1 pM to 10 µM) in PBS was added to the 96-well plates containing the immunoprecipitated TrkB and incubated for 1 h at room temperature. […] Luminescence was determined via streptavidin conjugated with horseradish peroxidase (HRP; Thermo Fisher Scientific, 21126; 1:5,000, 1 h at room temperature) in reaction with the Pierce ECL substrate (Thermo Fisher Scientific, 32106). Luminescence from blank wells that contained all reagents but the sample lysates was used to determine nonspecific binding. To obtain the binding curves, results from binding assays were fitted to the equation of specific binding with Hill slope from GraphPad Prism 9.2. To calculate koff values, results were fitted to the equation of dissociation of one phase exponential decay from GraphPad Prism 9.2.

rat TrkB (WT) = target: T1, rat TrkB (WT) (Rattus norvegicus, UniProt Q63604); test: ^3H-LSD saturation binding to TrkB immunoprecipitated from HEK293T lysates
T1 construct: expressed in transfected cells; host or cells: HEK293T
T1 sequence (Q63604 32-821): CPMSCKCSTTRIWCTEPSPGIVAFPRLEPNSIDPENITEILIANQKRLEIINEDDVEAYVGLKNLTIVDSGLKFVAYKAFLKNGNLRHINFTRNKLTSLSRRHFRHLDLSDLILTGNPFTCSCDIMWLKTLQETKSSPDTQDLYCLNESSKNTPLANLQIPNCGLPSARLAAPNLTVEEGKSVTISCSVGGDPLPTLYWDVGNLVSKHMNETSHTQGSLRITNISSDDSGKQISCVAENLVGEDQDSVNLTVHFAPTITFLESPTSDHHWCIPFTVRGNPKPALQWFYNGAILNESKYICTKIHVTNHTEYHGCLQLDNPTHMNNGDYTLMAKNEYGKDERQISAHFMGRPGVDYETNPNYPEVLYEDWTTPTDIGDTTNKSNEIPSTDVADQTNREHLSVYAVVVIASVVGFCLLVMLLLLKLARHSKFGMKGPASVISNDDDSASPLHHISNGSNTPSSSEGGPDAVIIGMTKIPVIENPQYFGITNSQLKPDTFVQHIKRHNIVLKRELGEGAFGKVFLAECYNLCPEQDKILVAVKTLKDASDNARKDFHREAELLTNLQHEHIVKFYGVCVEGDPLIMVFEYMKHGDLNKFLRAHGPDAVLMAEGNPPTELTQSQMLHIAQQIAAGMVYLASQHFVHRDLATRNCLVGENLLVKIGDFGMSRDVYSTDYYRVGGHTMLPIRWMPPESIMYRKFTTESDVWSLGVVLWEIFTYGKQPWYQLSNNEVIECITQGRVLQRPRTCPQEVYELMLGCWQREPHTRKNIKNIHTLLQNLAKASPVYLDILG
Procedure: as §1

human TrkB = target: T2, human TrkB (Homo sapiens, UniProt Q16620); test: as above
T2 construct: GFP; expressed in transfected cells; host or cells: HEK293T
T2 sequence (Q16620 32-822): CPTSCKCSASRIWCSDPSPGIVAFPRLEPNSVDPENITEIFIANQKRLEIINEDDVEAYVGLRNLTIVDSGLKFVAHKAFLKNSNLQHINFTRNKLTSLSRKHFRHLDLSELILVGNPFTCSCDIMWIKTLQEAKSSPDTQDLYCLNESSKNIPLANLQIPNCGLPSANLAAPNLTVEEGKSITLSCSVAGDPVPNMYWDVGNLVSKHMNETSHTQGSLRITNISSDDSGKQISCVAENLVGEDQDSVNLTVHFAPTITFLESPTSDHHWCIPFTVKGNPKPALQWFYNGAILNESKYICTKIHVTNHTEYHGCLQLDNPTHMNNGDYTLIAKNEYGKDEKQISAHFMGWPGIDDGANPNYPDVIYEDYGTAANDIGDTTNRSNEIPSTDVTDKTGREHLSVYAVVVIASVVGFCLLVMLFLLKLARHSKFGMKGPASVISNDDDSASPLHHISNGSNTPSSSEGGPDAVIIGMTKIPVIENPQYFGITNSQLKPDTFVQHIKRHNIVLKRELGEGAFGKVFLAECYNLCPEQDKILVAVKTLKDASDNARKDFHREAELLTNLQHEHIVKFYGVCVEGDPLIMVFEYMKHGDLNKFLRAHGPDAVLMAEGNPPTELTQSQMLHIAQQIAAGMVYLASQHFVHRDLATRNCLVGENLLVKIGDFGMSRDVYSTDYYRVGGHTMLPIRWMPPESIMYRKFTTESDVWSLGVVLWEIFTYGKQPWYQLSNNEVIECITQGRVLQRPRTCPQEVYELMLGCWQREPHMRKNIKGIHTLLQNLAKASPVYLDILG
Procedure: as §1

TrkB:PLCγ1 [1] = target: T3, TrkB:PLCγ1 (Mus musculus, UniProt P15209, Y433F); test: TrkB:PLCγ1 interaction in PFC and hippocampus after single LSD injection (ELISA, co-immunoprecipitation); format: in vivo; conditions: Y433F^+/− mice
T3 construct: from tissue; host or cells: prefrontal cortex and hippocampus of adult mice
T3 sequence (P15209 32-821 Y433F): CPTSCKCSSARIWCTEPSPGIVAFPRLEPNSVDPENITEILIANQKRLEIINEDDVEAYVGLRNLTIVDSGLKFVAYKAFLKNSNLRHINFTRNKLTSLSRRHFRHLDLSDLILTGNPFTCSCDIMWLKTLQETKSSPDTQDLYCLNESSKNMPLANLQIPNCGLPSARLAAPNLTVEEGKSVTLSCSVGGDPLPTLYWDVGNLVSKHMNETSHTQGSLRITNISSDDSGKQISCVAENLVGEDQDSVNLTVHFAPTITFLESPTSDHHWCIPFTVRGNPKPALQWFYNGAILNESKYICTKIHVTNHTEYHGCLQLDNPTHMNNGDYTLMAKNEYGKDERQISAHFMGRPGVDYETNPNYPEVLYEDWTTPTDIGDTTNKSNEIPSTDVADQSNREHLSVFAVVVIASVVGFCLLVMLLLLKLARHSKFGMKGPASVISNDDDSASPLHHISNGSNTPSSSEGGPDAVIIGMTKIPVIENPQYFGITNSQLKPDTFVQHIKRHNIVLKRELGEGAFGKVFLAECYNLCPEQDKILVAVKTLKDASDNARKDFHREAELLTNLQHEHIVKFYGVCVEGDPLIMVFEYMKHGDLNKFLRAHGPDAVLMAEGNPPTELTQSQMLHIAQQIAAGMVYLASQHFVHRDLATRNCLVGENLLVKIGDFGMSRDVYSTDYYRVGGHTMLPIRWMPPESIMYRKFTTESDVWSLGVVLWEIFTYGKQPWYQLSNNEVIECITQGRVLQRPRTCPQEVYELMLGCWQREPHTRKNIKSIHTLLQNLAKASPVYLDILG
T3 sequence (P15209 32-821, stated change not applied): as the sequence (P15209 32-821 Y433F) above, with F402Y counted along it
Procedure: (§2) The phosphorylation of TrkB (pY816) and interaction with PLCγ1 were assessed by enzyme-linked immunosorbent assay (ELISA) as previously described[11],[80],[81] with minor modifications. Briefly, white 96-well plates (PerkinElmer, OptiPlate 96F-HB) were precoated with goat anti-TrkB (R&D systems, AF1494; 1:500, overnight, 4 °C) antibody in carbonate buffer (pH 9.8) and blocked with 3% BSA in PBS with 0.1% Tween-20 (PBS-T) for 2 h at room temperature. […] Samples were incubated overnight at 4 °C, and 24 h later plates were washed with PBS-T and incubated with either rabbit anti-phospho-TrkB(Tyr816) (Cell Signaling Technology, 4168S; 1:2,000), rabbit anti-PLCγ1 (Cell Signaling Technologies, 5690S; 1:2,000) or rabbit anti-Trk (Cell Signaling Technologies, 92991; 1:2,000) antibodies overnight at 4 °C. After washing with PBS-T, plates were incubated with HRP-conjugated goat anti-rabbit (Bio-Rad, 170–5046; 1:5,000, 1 h, room temperature) antibody, followed by more washing with PBS-T. Finally, the chemiluminescent signal was read after brief incubation with Pierce ECL substrate (Thermo Fisher Scientific, 32106). Luminescence from blank wells that contained all reagents but the sample lysates was used to determine background signal. […]

TrkB:PLCγ1 [2] = target: T4, TrkB:PLCγ1 (Mus musculus, UniProt P15209); test: as above; format: in vivo; conditions: WT mice, single administration
T4 construct: from tissue; host or cells: prefrontal cortex and hippocampus of adult mice
T4 sequence (P15209 32-821): as the sequence (P15209 32-821 Y433F) above, with F402Y counted along it
Procedure: as §2

TrkB pY816 = test: pY816 in PFC and hippocampus after single LSD injection (ELISA, immunoblot); format: in vivo; conditions: mouse brain samples, single administration
Procedure: as §2

For `CCN(CC)C(=O)C1C=C2c3cccc4[nH]cc(c34)CC2N(C)C1` (stereo not shown) [LSD, lysergic acid diethylamide], the “Ntrk2 mRNA levels” value (Ntrk2 mRNA) was “without any changes in Ntrk2 mRNA levels”, the LSD binding (TrkA.TM chimera) was “completely abolishes LSD binding” and the Kd (rat TrkB (WT)) was 0.656 ± 0.093 nM. For the same compound, the “h (best-fit, 1a)” value (rat TrkB (WT); WT, Hill slope) was 1.255, the “Bmax (best-fit, 1a)” value (rat TrkB (WT); WT, specific binding with Hill slope) was 100.9 and the Bmax (rat TrkB (WT); ^3H-LSD saturation, rat TrkB) was 3.053 ± 0.099 pmol mg^−1 protein. For the same compound, the Kd (human TrkB) was 0.93 ± 0.414 nM, the Bmax (human TrkB; ^3H-LSD saturation, human TrkB) was 4.028 ± 0.326 pmol mg^−1 protein and the “Bmax (specific binding with Hill slope, best-fit)” value (human TrkB; ext fig 1a, TRKB.wt, n=2) was 111.1. The “h (Hill slope, best-fit)” value (human TrkB; ext fig 1a, TRKB.wt, n=2) was 0.4722, the “TrkB:PLCγ1 interaction” value (TrkB:PLCγ1 [1]) was “these effects are impaired” and the “TrkB:PLCγ1 interaction” value (TrkB:PLCγ1 [2]) was “increases TrkB:PLCγ1 interaction”. The “TrkB phosphorylation (pY816)” value (TrkB pY816) was “increases phosphorylation of TrkB tyrosine 816 (pY816)”.
